Assay results reported in patent publication US20100160432A1, “Curative drug for neurodegenerative diseases” (priority 2007, published 2010).
Read-outs that look alike come from different tables or passages of the source.

Key:
PC12 cells = assay: Cytoprotection against linoleic acid hydroperoxide (LA-OOH) cell disorder, PC12 cells, methylene blue dye uptake; type: cell-based, rat; settings: for Protection Rate (%) / Survival Rate (%): LA-OOH 35 μM, about 20 h; for protection rate of PC12 cells (up to) / survival rate of PC12 cells (up to): highest value over the doses tested
Experimental: (§1) Of the hydroquinone derivatives expressed in the aforesaid Formula 1, 2,3,5-trimethyl-hydroquinone-1-hexylether (Compound 1) was examined in comparison with vitamin E with respect to the activity of inhibiting toxicity of lipid peroxide to nerve cells. PC12 cells as a cell culture model of for human neuroblastoma-derived SH-SY5Y and rat pheochromocytoma cells were cultivated by the law of the art. A culture media was prepared in effect by adding FCS (fetal calf serum) to Dulbecco's Eagle medium (DMEM) and used further with the addition of NaHCO3 (3.7 g/L), penicillin G (100 U/mL) and Streptomycin ([…]). A cultivation was performed by seeding 6×10^4 SH-SY5Y cells and 4×10^4 PC12 cells in a CO2 incubator at 37° C. using a microplate with 24 macroscopic pores. After 48 hours, the aforesaid Compound 1 or vitamin E was added thereto. Then after about 30 minutes, 70 μM of linoleic acid hydroperoxide were added thereto for the SH-SY5Y cells and 35 μM of the same were added for PC12 cells. After cultivation for about 20 hours, the number of surviving cells was measured.
(§2) The measurement of the surviving cells was made by a Methylene blue dye uptake method. To be more specific, the cells were rinsed twice with PBS (phosphate buffered saline free from Mg and Ca), and then, fixated with 10% formalin for 5 minutes. Further, the cells were rinsed three times with distilled water, stained with 0.05% methylene blue solution for 60 minutes, and rinsed three times with distilled water. Then, 20 minutes after adding 0.33N HCl thereto, the absorbance of the cells was measured at 665 nm. The survival rate and protection rate of the cells were calculated on the basis of the measured result by the following equation.
(§3) Cell survival rate (%)=[absorbance of treated cells with testing additives]/[absorbance of non-treated cells]×100
(§4) Protection rate (%)={1−(100−[survival rate of treated cells with testing additives])/(100−[survival rate of cells with no additives])}×100

SH-SY5Y cells = assay: Cytoprotection against linoleic acid hydroperoxide (LA-OOH) cell disorder, SH-SY5Y cells, methylene blue dye uptake; type: cell-based, human; settings: for Protection Rate (%) / Survival Rate (%): SH-SY5Y cells, LA-OOH 70 μM, about 20 h
Experimental: as §1, §2, §3, §4

[1] = compared with vitamin E, cited from earlier work
NO production = settings: compared with vitamin E; cited from earlier work

Compound	Protection Rate (%) (PC12 cells; dosage 0.1 μM)	Survival Rate (%) (PC12 cells; dosage 0.1 μM)	Protection Rate (%) (PC12 cells; dosage 0.5 μM)	Survival Rate (%) (PC12 cells; dosage 0.5 μM)	Protection Rate (%) (PC12 cells; dosage 1.0 μM)	Survival Rate (%) (PC12 cells; dosage 1.0 μM)	Protection Rate (%) (PC12 cells; dosage 5.0 μM)	Survival Rate (%) (PC12 cells; dosage 5.0 μM)	protection rate of PC12 cells (up to) (PC12 cells)	survival rate of PC12 cells (up to) (PC12 cells)	Protection Rate (%) (SH-SY5Y cells; dosage 0.5 μM)	Survival Rate (%) (SH-SY5Y cells; dosage 0.5 μM)	Protection Rate (%) (SH-SY5Y cells; dosage 1.0 μM)	Survival Rate (%) (SH-SY5Y cells; dosage 1.0 μM)	Protection Rate (%) (SH-SY5Y cells; dosage 5.0 μM)	Survival Rate (%) (SH-SY5Y cells; dosage 5.0 μM)	Protection Rate (%) (SH-SY5Y cells; dosage 10.0 μM)	Survival Rate (%) (SH-SY5Y cells; dosage 10.0 μM)	further results
CCCCCCOc1cc(C)c(O)c(C)c1C [Compound 1, 2,3,5-trimethyl-hydroquinone-1-hexylether]	21.5%	45.68%	80.6%	86.57%	88.4%	91.96%	88.9%	92.31%	around 90%	around 90%	14.8%	83.41%	22.1%	84.83%	38.3%	87.97%	33.5%	87.04%	toxicity in comparison with vitamin E (SH-SY5Y cells; SH-SY5Y cells and PC12 cells, from Table 1 and Table 2): lower toxicity; antioxidative properties relative to vitamin E [1]: double that of vitamin E; antioxidative properties relative to vitamin E ([1]; listed as 2,3,5-trimethyl-hydroquinone-1-hexylether): twice as strong as vitamin E; NO-production inhibitory activity relative to vitamin E (NO production): 500 times as strong as vitamin E
Vitamin E [reference compound]	6.8%	37.16%	4.9%	35.88%	4.8%	35.85%	14.8%	42.57%	around 15%	about 42%	14.5%	83.72%	−6.3%	79.77%	−6.2%	79.78%	4.3%	81.78%	
